Measurements as given in the NIST ThermoML archive (doi:10.1021/acs.jced.5b00613).

Assay: xn = mol fraction of the nth substance listed
Settings: Liquid, Vibrating tube method

CCCCCCCCCC [decane] + CCCCCC
mass density [kg/m3]
Settings	100 kPa	1000 kPa	5000 kPa	10000 kPa	20000 kPa	30000 kPa	40000 kPa	50000 kPa	60000 kPa
278.15 K, x2 = 0.1992	732.4	733	735.8	739.2	745.6	751.5	756.9	761.9	767
278.15 K, x2 = 0.3968	721.4	722.1	725.1	728.7	735.1	741.4	747	752.2	757.4
278.15 K, x2 = 0.4978	715.4	716	719.2	722.8	729.5	735.7	741.4	746.8	752
278.15 K, x2 = 0.5957	708.5	709.1	712.3	716	722.8	729.3	735.1	740.6	745.8
278.15 K, x2 = 0.7978	692.6	693.3	696.8	700.6	707.9	714.7	720.8	726.4	731.9
298.15 K, x2 = 0.1992	716.8	717.5	720.7	724.6	731.7	738.1	744	749.6	755
298.15 K, x2 = 0.3968	705.6	706.3	709.7	713.8	721	727.9	734.2	739.9	745.4
298.15 K, x2 = 0.4978	699.1	699.6	703.1	707.3	714.8	721.7	728	733.8	739.4
298.15 K, x2 = 0.5957	692.1	692.7	696.2	700.5	708.2	715.2	721.6	727.6	733.3
298.15 K, x2 = 0.7978	675.5	676.3	680.3	684.8	693	700.4	707.2	713.4	719.3
323.15 K, x2 = 0.1992	697.5	698.6	702.3	706.7	714.8	722.1	728.6	734.9	740.7
323.15 K, x2 = 0.3968	685.4	686.5	690.5	695.3	703.7	711.3	718.2	724.6	730.6
323.15 K, x2 = 0.4978	678.2	679.4	683.6	688.3	697.1	704.9	711.9	718.5	724.6
323.15 K, x2 = 0.5957	670.9	672.1	676.3	681.3	690.3	698.3	705.5	712.1	718.4
323.15 K, x2 = 0.7978	653.4	654.6	659.3	664.7	674.3	682.8	690.4	697.4	703.9
348.15 K, x2 = 0.1992	677	678.1	682.5	687.7	697.1	705.3	712.7	719.5	725.8
348.15 K, x2 = 0.3968	–	665.7	670.4	676	685.8	694.4	702.2	709.3	715.9
348.15 K, x2 = 0.4978	–	658.2	663.2	668.8	679	687.8	695.7	703	709.7
348.15 K, x2 = 0.5957	–	650.3	655.5	661.4	671.9	681	689.1	696.4	703.2
348.15 K, x2 = 0.7978	–	631.9	637.5	644	655.3	665	673.6	681.4	688.5
373.15 K, x2 = 0.1992	–	657.7	663	669	679.9	689.3	697.6	705	711.8
373.15 K, x2 = 0.3968	–	645	650.7	657.1	668.5	678.3	687	694.8	701.9
373.15 K, x2 = 0.4978	–	636.7	642.6	649.4	661.3	671.4	680.2	688.2	695.5
373.15 K, x2 = 0.5957	–	628.1	634.4	641.4	653.7	664.1	673.2	681.3	688.8
373.15 K, x2 = 0.7978	–	608.4	615.4	623.2	636.6	647.8	657.5	666.2	674
423.15 K, x2 = 0.1992	–	614.4	622.2	630.6	644.9	656.8	667.1	676.2	684.4
423.15 K, x2 = 0.3968	–	599.1	607.8	617.1	632.5	645.3	656.2	665.7	674.3
423.15 K, x2 = 0.4978	–	589.4	598.8	608.6	624.8	637.9	649	658.8	667.5
423.15 K, x2 = 0.5957	–	578.9	588.9	599.2	616.2	629.8	641.3	651.3	660.2
423.15 K, x2 = 0.7978	–	554.6	566.5	578.7	597.5	612.4	624.8	635.7	645.3
463.15 K, x2 = 0.1992	–	–	586.3	597.8	616.1	630.7	642.9	653.4	662.7
463.15 K, x2 = 0.3968	–	–	570.2	583.3	603.3	618.8	631.7	642.8	652.7
463.15 K, x2 = 0.4978	–	–	559.5	573.5	594.6	610.7	624.1	635.5	645.6
463.15 K, x2 = 0.5957	–	–	547.9	563.1	585.4	602.3	616	627.6	637.9
463.15 K, x2 = 0.7978	–	–	521.1	539.4	565.1	583.8	598.5	611	621.8
